Data from US11497787B2, “Functionalized poly-ADP-ribose polymers for drug delivery” (University of Southern California, priority 2019, dated 2022).
Like-named read-outs stand apart in the source and are kept apart here.

Experiments:
wild type PARP1 = wild type PARP1 (Homo sapiens, UniProt P09874); assay: Automodification and click-chemistry based immunoblot activity analysis
Description: Automodification and Immunoblotting Activity Analysis. […] 20 μL of the reaction was taken out and saved for SDS-PAGE analysis. The remaining reaction mixtures were further labeled with azide-biotin (for 1-4) or phosphine-PEG3-Biotin (for 5 and 6) through copper(I)-catalyzed azide alkyne cycloaddition (CuAAC) and Staudinger reaction. The CuAAC reactions were performed for one hours at room temperature in 40 μL volume, which contain 30 μL PARP1 automodification mixtures, 2 mM THPTA, 1 mM CuSO4, 100 μM azide-biotin, and 10 mM sodium ascorbate in PBS. […] The levels of auto-PARylation were evaluated by immunoblots using a streptavidin-HRP conjugate for detection of the biotinylated PARP1 via click chemistry and Staudinger reaction.

[1] = molecular target: T1, purified human full-length PARP1 (Homo sapiens, UniProt P09874); assay: HPLC-based kinetic assay, NADase activity; type: biochemical; details: hydrolysis catalyzed by PARP1, 30° C.
T1 construct: His6 (C); made in house; host or cells: E. coli BL21 (DE3), pET-28a(+)
Description: (§1) High-performance Liquid Chromatography (HPLC)-based Kinetic Assays. Auto-PARylation of PARP1 was carried out in 80 μL assay solutions (30 mM HEPES, pH 8.0, 5 mM MgCl2, 5 mM CaCl2, 1 mM DTT, 100 ng/μL of activated DNA, 100 ng/μL BSA) containing varied concentrations of NAD^+ (50, 100, 250, 450, 600, and 750 μM) or NAD^+ analogues (2, 6; see Table 1) at 30° C. with purified PARP1 enzymes. The reactions were quenched at different time points (NAD^+: 0, 2.5, 5, 10, 15, and 20 min; 2: 0, 60, 120, 180, 240, and 300 min; 6: 0, 5, 10, 15, 20 and 30 min) using 20% ice-cold TCA. After centrifugation, the reaction mixtures were analyzed by reverse phase HPLC using a semipreparative C18 Kinetex column (5 μm, 100 Å, 150×10.0 mm, from Phenomenex Inc, Torrance, Calif.) (mobile phase A: 0.1% formic acid (aq); mobile phase B: 0.1% formic acid in acetonitrile; flow rate=2.0 ml/min; 0-8 min: 0% B, 8-12 min: 0-50% B, 12-13 min: 50-2.5% B, 13-18 min: 2.5-40% B, 18-20 min: 40-0% B) with detection of UV absorbance at 260 nm. […] NADase reaction rates were determined based on the increase in peak areas of the assigned peaks of ADPr and ADPr analogues, while reaction rates for PARP activities were measured based on the decrease in peak areas of the assigned peaks of NAD^+ and NAD^+ analogues excluding NADase activity. […]

[2] = molecular target: T1, purified human full-length PARP1; details: literature value; read-out: Km with PARP1, previously reported value; cited from earlier work
[3] = molecular target: T1, purified human full-length PARP1; assay: HPLC-based kinetic assay, PARP activity (auto-PARylation); type: biochemical; details: substrate of PARP1, 30° C.
Description: as §1

T1 sequence (P09874 whole entry): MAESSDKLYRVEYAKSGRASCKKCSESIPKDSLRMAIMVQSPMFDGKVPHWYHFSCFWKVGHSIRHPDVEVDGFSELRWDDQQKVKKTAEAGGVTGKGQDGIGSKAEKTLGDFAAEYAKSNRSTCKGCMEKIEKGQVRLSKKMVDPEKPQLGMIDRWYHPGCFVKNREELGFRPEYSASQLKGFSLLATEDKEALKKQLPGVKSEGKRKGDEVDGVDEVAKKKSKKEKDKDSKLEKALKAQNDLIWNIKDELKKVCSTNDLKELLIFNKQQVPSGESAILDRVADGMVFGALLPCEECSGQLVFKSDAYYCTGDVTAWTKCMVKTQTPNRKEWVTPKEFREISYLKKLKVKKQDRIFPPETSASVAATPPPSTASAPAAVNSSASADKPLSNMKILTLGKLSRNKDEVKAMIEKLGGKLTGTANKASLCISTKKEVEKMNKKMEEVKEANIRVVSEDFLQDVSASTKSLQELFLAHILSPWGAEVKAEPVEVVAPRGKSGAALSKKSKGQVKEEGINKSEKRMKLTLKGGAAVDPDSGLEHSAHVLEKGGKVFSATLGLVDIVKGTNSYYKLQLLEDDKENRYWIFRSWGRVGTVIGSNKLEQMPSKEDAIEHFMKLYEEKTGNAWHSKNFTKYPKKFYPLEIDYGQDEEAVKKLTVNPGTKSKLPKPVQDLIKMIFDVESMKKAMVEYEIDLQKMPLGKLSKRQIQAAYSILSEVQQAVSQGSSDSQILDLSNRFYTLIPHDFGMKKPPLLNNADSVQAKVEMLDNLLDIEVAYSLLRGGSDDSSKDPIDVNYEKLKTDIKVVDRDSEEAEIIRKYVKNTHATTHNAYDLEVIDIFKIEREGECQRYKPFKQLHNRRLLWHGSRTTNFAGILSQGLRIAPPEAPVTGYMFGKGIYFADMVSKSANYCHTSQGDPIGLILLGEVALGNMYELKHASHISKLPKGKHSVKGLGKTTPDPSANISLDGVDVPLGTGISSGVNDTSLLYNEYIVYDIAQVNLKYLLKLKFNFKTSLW
Sequence of wild type PARP1 (P09874 whole entry): as above

SMILES	PARP1 automodification signal (substrate use), biotinylation-based immunoblot (wild type PARP1; 250 μM NAD^+ or analogue, 5 μM PARP1, 30° C., 2 hours)	Km [1]	kcat, NADase activity [1]	Km [2]	Km [3]	kcat, PARP activity [3]	suppression of PARP1 catalytic activity / automodification signal (wild type PARP1; automodification with NAD2 and NAD6, versus no-inhibitor controls)
NC(=O)c1ccc[n+]([C@@H]2O[C@H](COP(=O)([O-])OP(=O)(O)OC[C@H]3O[C@@H](n4cnc5c(N)ncnc54)[C@H](O)[C@@H]3O)[C@@H](O)[C@H]2O)c1 [NAD^+, nicotinamide adenine dinucleotide]	no automodification signals	472 ± 187 µM	0.0065 ± 0.0013 s⁻¹	97 ± 7 µM	145 ± 36 µM	0.0783 ± 0.0067 s⁻¹	–
C[C@]1(c2nc3c(C(N)=O)cccc3[nH]2)CCCN1 [veliparib]	–	–	–	–	–	–	potently suppressed
